Source: US20260274833A1 (NiKang Therapeutics, Inc., priority 2022, published 2026)

The compounds below were run against T1, CDK2 (Homo sapiens, UniProt P24941) (assay: Phospho-RB measurement in OVCAR3 cells (HTRF phospho-RB cellular kit)). Details: inhibition of RB phosphorylation at S807/811 (HTRF, TR-FRET ratio 665/620), 24 h compound treatment, 0.3 to 10,000 nM.
T1 construct: endogenous in cells; host or cells: OVCAR3 cells
Type: cell-based
Method: Biological Example 1: Phospho-RB Measurement in OVCAR3 Cells
The ability of compounds of Formula (I) to inhibit CDK2 was determined in OVCAR3 cells by measuring inhibition of phosphorylation of RB protein at S780 and S807/811. Phosphorylation of RB protein at S807/811 were measured using HTRF phospho-RB cellular kits (Cat #64RBS807PEG) from Cisbio.
On Day 1, OVCAR3 cells were seeded into 96-well tissue-culture treated plates at 20,000 cells/well in 200 μL and incubated overnight at 37° C. in CO2 atmosphere. On Day 2, the cells were treated with test compounds at concentrations from 0.3 to 10,000 nM using HP D300 digital dispenser. Twenty-four hours after compound treatment, cell culture media was removed by flicking the plate and tapping the plate against clean paper towel. Immediately 30 μL 1× lysis buffer was supplemented from the kit and the plate was incubated at room temperature on shaker for 30 min. After homogenization by pipetting up and down, 8 μL cell lysate from 96-well cell culture plate was transferred to 384-well small volume white detection plate. 2 μL premixed detection solution was added and the plate was covered with sealer. To prepare the detection solution, d2 conjugated-phospho-RB antibody and Eu-cryptate conjugated phosphor-RB antibody were diluted into detection buffer following manufacturer's instruction.
Detection plates were incubated for 4 h at room temperature and read on ClarioStar (BMG Labtech) in TR-FRET mode ([…]). The TR-FRET ratio (665 nM/620 nM) was plotted against the compound concentration and normalized to DMSO controls. Half maximal inhibition concentration (IC50) values are calculated with a four-parameter logistic fit using GraphPad Prism (version 8; La Jolla, CA).

Structure (SMILES)	IC50 [nM]
COc1cccc2c1CN(S(=O)(=O)Nc1cccc(-c3nc(C4(C)CCOCC4)sc3-c3ccnc(NC4CC5(C4)CS(=O)(=O)C5)n3)c1F)C2 [Example 2, N-(3-(5-(2-((2,2-dioxido-2-thiaspiro-[3.3]-heptan-6-yl)amino)pyrimidin-4-yl)-2-(4-methyltetrahydro-2H-pyran-4-yl)-thiazol-4-yl)-2-fluorophenyl)-4-methoxyisoindoline-2-sulfonamide]	75.5
CC1(c2nc(-c3cccc(NS(=O)(=O)N4Cc5cccc(C(F)(F)F)c5C4)c3F)c(-c3ccnc(NC4CC5(C4)CS(=O)(=O)C5)n3)s2)CCOCC1 [Example 3, N-(3-(5-(2-((2,2-dioxido-2-thiaspiro-[3.3]-heptan-6-yl)amino)pyrimidin-4-yl)-2-(4-methyltetrahydro-2H-pyran-4-yl)thiazol-4-yl)-2-fluorophenyl)-4-(trifluoromethyl) isoindoline-2-sulfonamide]	48.6
O=S1(=O)CC2(CC(Nc3nccc(-c4sc(N5C6CCC5COC6)nc4-c4cccc(NS(=O)(=O)N5Cc6ccccc6C5)c4F)n3)C2)C1 [Example 4, N-(3-(2-(3-oxa-8-azabicyclo[3.2.1]octan-8-yl)-5-(2-((2,2-dioxido-2-thiaspiro-[3.3]heptan-6-yl)amino)pyrimidin-4-yl)thiazol-4-yl)-2-fluorophenyl)-isoindoline-2-sulfonamide]	138
CC1(c2nc(-c3cccc(NS(=O)(=O)N4CCc5ccc(C#N)cc54)c3F)c(-c3ccnc(NC4CC5(C4)CS(=O)(=O)C5)n3)s2)CCOCC1 [Example 5, 6-cyano-N-(3-(5-(2-((2,2-dioxido-2-thiaspiro-[3.3]heptan-6-yl)amino)-pyrimidin-4-yl)-2-(4-methyltetrahydro-2H-pyran-4-yl)thiazol-4-yl)-2-fluorophenyl) indoline-1-sulfonamide]	32.7
N#Cc1ccc2c(c1)N(S(=O)(=O)Nc1cccc(-c3nc(N4C5CCC4COC5)sc3-c3ccnc(NC4CC5(C4)CS(=O)(=O)C5)n3)c1F)CC2 [Example 6, N-(3-(2-(3-oxa-8-azabicyclo[3.2.1]octan-8-yl)-5-(2-((2,2-dioxido-2-thiaspiro-[3.3]heptan-6-yl)amino)pyrimidin-4-yl)thiazol-4-yl)-2-fluorophenyl)-6-cyanoindoline-1-sulfonamide]	109
COc1cccc2c1CN(S(=O)(=O)Nc1cccc(-c3nc(C4(C)CCOCC4)sc3-c3ccnc(N[C@H]4[C@@H]5CS(=O)(=O)C[C@@H]54)n3)c1F)C2 [Example 7, N-(3-(5-(2-(((1R, 5S,6r)-3,3-dioxido-3-thiabicyclo[3.1.0]hexan-6-yl)amino)-pyrimidin-4-yl)-2-(4-methyltetrahydro-2H-pyran-4-yl)thiazol-4-yl)-2-fluorophenyl)-4-methoxyisoindoline-2-sulfonamide]	9.2
CC1(c2nc(-c3cccc(NS(=O)(=O)N4Cc5cccc(C(F)(F)F)c5C4)c3F)c(-c3ccnc(N[C@H]4[C@@H]5CS(=O)(=O)C[C@@H]54)n3)s2)CCOCC1 [Example 8, N-(3-(5-(2-(((1R,5S, 6r)-3,3-dioxido-3-thiabicyclo[3.1.0]hexan-6-yl)amino)-pyrimidin-4-yl)-2-(4-methyltetrahydro-2H-pyran-4-yl)thiazol-4-yl)-2-fluorophenyl)-4-(trifluoromethyl)-isoindoline-2-sulfonamide]	15.2
N#Cc1ccc2c(c1)N(S(=O)(=O)Nc1cccc(-c3nc(C45CC(C4)C5)sc3-c3ccnc(NC4CC5(C4)CS(=O)(=O)C5)n3)c1F)CC2 [Example 9, N-(3-(2-(bicyclo [1.1.1]pentan-1-yl)-5-(2-((2,2-dioxido-2-thiaspiro[3.3]heptan-6-yl)amino)-pyrimidin-4-yl)thiazol-4-yl)-2-fluorophenyl)-6-cyanoindoline-1-sulfonamide]	104
CC1(c2nc(-c3cccc(NS(=O)(=O)N4CCc5ccc(C#N)cc54)c3F)c(-c3ccnc(N[C@H]4[C@@H]5CS(=O)(=O)C[C@@H]54)n3)s2)CCOCC1 [Example 10]	73
O=S1(=O)C[C@@H]2[C@H](C1)[C@H]2Nc1nccc(-c2sc(C34CC(C3)C4)nc2-c2cccc(NS(=O)(=O)N3Cc4ccc(CO)cc4C3)c2F)n1 [Example 11, N-(3-(2-(bicyclo [1.1.1]pentan-1-yl)-5-(2-(((1R,5S,6r)-3,3-dioxido-3-thiabicyclo-[3.1.0]hexan-6-yl)amino)pyrimidin-4-yl)thiazol-4-yl)-2-fluorophenyl)-5-(hydroxymethyl) isoindoline-2-sulfonamide]	81
CC1(c2nc(-c3cccc(NS(=O)(=O)N4Cc5ccc(CO)cc5C4)c3F)c(-c3ccnc(N[C@H]4[C@@H]5CS(=O)(=O)C[C@@H]54)n3)s2)CCOCC1 [Example 12, N-(3-(5-(2-(((1R, 5S,6r)-3,3-dioxido-3-thiabicyclo[3.1.0]hexan-6-yl)amino)-pyrimidin-4-yl)-2-(4-methyltetrahydro-2H-pyran-4-yl)thiazol-4-yl)-2-fluorophenyl)-5-(hydroxymethyl)-isoindoline-2-sulfonamide]	47.8
O=S1(=O)C[C@@H]2[C@H](C1)[C@H]2Nc1nccc(-c2sc(C34CC(C3)C4)nc2-c2cccc(NS(=O)(=O)N3CCc4c(CO)cccc43)c2F)n1 [Example 13, N-(3-(2-(bicyclo [1.1.1]pentan-1-yl)-5-(2-(((1R,5S,6r)-3,3-dioxido-3-thia-bicyclo[3.1.0]-hexan-6-yl)amino)-pyrimidin-4-yl)thiazol-4-yl)-2-fluorophenyl)-4-(hydroxymethyl)-indoline-1-sulfonamide]	57.7
N#Cc1ccc2c(c1)N(S(=O)(=O)Nc1cccc(-c3nc(C45CC(C4)C5)sc3-c3ccnc(N[C@H]4[C@@H]5CS(=O)(=O)C[C@@H]54)n3)c1F)CC2 [Example 14, N-(3-(2-(bicyclo [1.1.1]pentan-1-yl)-5-(2-(((1R,5S,6r)-3,3-dioxido-3-thiabicyclo-[3.1.0]-hexan-6-yl)amino)pyrimidin-4-yl)thiazol-4-yl)-2-fluorophenyl)-6-cyanoindoline-1-sulfonamide]	124
CN1CC2CCC(C1)N2c1nc(-c2cccc(NS(=O)(=O)N3Cc4ccccc4C3)c2F)c(-c2ccnc(NC3CC4(C3)CS(=O)(=O)C4)n2)s1 [Example 15, N-(3-(5-(2-((2,2-dioxido-2-thiaspiro-[3.3]-heptan-6-yl)amino)pyrimidin-4-yl)-2-(3-methyl-3,8-diazabicyclo[3.2.1]-octan-8-yl)thiazol-4-yl)-2-fluorophenyl)-isoindoline-2-sulfonamide]	72.5
CN1CC2CCC(C1)N2c1nc(-c2cccc(NS(=O)(=O)N3CCc4ccc(C#N)cc43)c2F)c(-c2ccnc(NC3CC4(C3)CS(=O)(=O)C4)n2)s1 [Example 16, 6-cyano-N-(3-(5-(2-((2,2-dioxido-2-thiaspiro[3.3]heptan-6-yl)amino)-pyrimidin-4-yl)-2-(3-methyl-3,8-diazabicyclo[3.2.1]octan-8-yl)thiazol-4-yl)-2-fluorophenyl) indoline-1-sulfonamide]	62.4
CN1CC2CCC(C1)N2c1nc(-c2cccc(NS(=O)(=O)N3CCc4ccccc43)c2F)c(-c2ccnc(NC3CC4(C3)CS(=O)(=O)C4)n2)s1 [Example 17, N-(3-(5-(2-((2,2-dioxido-2-thiaspiro-[3.3]-heptan-6-yl)amino)pyrimidin-4-yl)-2-(3-methyl-3,8-diazabicyclo[3.2.1]-octan-8-yl)thiazol-4-yl)-2-fluorophenyl)-indoline-1-sulfonamide]	15
CN1CC2CCC(C1)N2c1nc(-c2cccc(NS(=O)(=O)N3Cc4cccc(C(F)F)c4C3)c2F)c(-c2ccnc(NC3CC4(C3)CS(=O)(=O)C4)n2)s1 [Example 18, 4-(difluoromethyl)-N-(3-(5-(2-((2,2-dioxido-2-thiaspiro [3.3]heptan-6-yl)amino)pyrimidin-4-yl)-2-(3-methyl-3,8-diazabicyclo [3.2.1]octan-8-yl)thiazol-4-yl)-2-fluorophenyl)-isoindoline-2-sulfonamide]	24.8
O=S1(=O)CC2(CC(Nc3nccc(-c4sc(C56CC(C5)C6)nc4-c4cccc(NS(=O)(=O)N5CCc6ccc(C(F)(F)F)cc65)c4F)n3)C2)C1 [Example 19, N-(3-(2-(bicyclo [1.1.1]pentan-1-yl)-5-(2-((2,2-dioxido-2-thiaspiro[3.3]heptan-6-yl)amino)-pyrimidin-4-yl)thiazol-4-yl)-2-fluorophenyl)-6-(trifluoromethyl)-indoline-1-sulfonamide]	120
COc1ccc2c(c1)N(S(=O)(=O)Nc1cccc(-c3nc(C45CC(C4)C5)sc3-c3ccnc(NC4CC5(C4)CS(=O)(=O)C5)n3)c1F)CC2 [Example 20, N-(3-(2-(bicyclo [1.1.1]pentan-1-yl)-5-(2-((2,2-dioxido-2-thiaspiro[3.3]heptan-6-yl)amino)-pyrimidin-4-yl)thiazol-4-yl)-2-fluorophenyl)-6-methoxyindoline-1-sulfonamide]	208
